Measured values published in ChEMBL document CHEMBL1201862, “PubChem BioAssay data set” (2004).
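1) Cells in 96-well plates. 2) Compound, 48 h, 5 concentrations. 3) Linear interpolation between surrounding doses. 4) Unreached endpoint = highest concentration. The concentration for 50% growth inhibition is given as GI50.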 Calls of active or inactive are those of the source. Cut-off read from the data, not from the text of the source: active = GI50 up to about 1.1 µM and inactive = higher.

Assays:
Experiment in all cases: NCI-60 cell line screen, 48 h
SF-539 = test system: SF-539
SF-268 = test system: SF-268
SNB-75 = test system: SNB-75
HOP-18 = test system: HOP-18
HCC 2998 = test system: HCC 2998
UO-31 = test system: UO-31
DMS-273 = test system: DMS-273
HCT-116 = test system: HCT-116
RPMI-8226 = test system: RPMI-8226
M14 = test system: M14
SK-MEL-2 = test system: SK-MEL-2
SF-295 = test system: SF-295
MOLT-4 = test system: MOLT-4
M19-MEL = test system: M19-MEL
LOX IMVI = test system: LOX IMVI
CAKI-1 = test system: CAKI-1
COLO 205 = test system: COLO 205
SK-MEL-5 = test system: SK-MEL-5
SK-MEL-28 = test system: SK-MEL-28
LXFL 529 = test system: LXFL 529
UACC-62 = test system: UACC-62
SW-620 = test system: SW-620
HOP-62 = test system: HOP-62
HT-29 = test system: HT-29
TK-10 = test system: TK-10
HOP-92 = test system: HOP-92
IGROV-1 = test system: IGROV-1
RXF 393 = test system: RXF 393
NCI-H460 = test system: NCI-H460
SK-OV-3 = test system: SK-OV-3
K562 = test system: K562
KM12 = test system: KM12
NCI-H522 = test system: NCI-H522
SNB-19 = test system: SNB-19
A549 = test system: A549
786-0 = test system: 786-0
HCT-15 = test system: HCT-15
DMS-114 = test system: DMS-114
Malme-3M = test system: Malme-3M
ACHN = test system: ACHN
NCI-H23 = test system: NCI-H23
DLD-1 = test system: DLD-1
SR = test system: SR
OVCAR-5 = test system: OVCAR-5
OVCAR-8 = test system: OVCAR-8
OVCAR-4 = test system: OVCAR-4
SN12C = test system: SN12C
U-251 = test system: U-251
A498 = test system: A498
OVCAR-3 = test system: OVCAR-3
CCRF-CEM = test system: CCRF-CEM
HL-60 = test system: HL-60
MDA-MB-435 = test system: MDA-MB-435
Hs-578T = test system: Hs-578T
UACC-257 = test system: UACC-257
NCI/ADR-RES = test system: NCI/ADR-RES
PC-3 = test system: PC-3
NCI-H226 = test system: NCI-H226
MDA-MB-231 = test system: MDA-MB-231
BT-549 = test system: BT-549
T47D = test system: T47D
MCF7 = test system: MCF7
EKVX = test system: EKVX
MDA-N = test system: MDA-N
DU-145 = test system: DU-145

CC1(CO)OC(n2cnc3c(N)ncnc32)C(O)C1O (stereo not given)
GI50 (SF-539): > 100 µM (inactive)
GI50 (SF-268): > 100 µM (inactive)
GI50 (SNB-75): 87.3 µM (inactive)
GI50 (HOP-18): > 100 µM (inactive)
GI50 (HCC 2998): > 100 µM (inactive)
GI50 (UO-31): > 100 µM (inactive)
GI50 (DMS-273): > 10 µM (inactive)
GI50 (HCT-116): > 100 µM (inactive)
GI50 (RPMI-8226): > 100 µM (inactive)
GI50 (M14): > 100 µM (inactive)
GI50 (SK-MEL-2): > 100 µM (inactive)
GI50 (SF-295): > 100 µM (inactive)
GI50 (MOLT-4): > 100 µM (inactive)
GI50 (M19-MEL): > 100 µM (inactive)
GI50 (LOX IMVI): > 100 µM (inactive)
GI50 (CAKI-1): > 100 µM (inactive)
GI50 (COLO 205): > 100 µM (inactive)
GI50 (SK-MEL-5): > 100 µM (inactive)
GI50 (SK-MEL-28): > 100 µM (inactive)
GI50 (LXFL 529): > 100 µM (inactive)
GI50 (UACC-62): > 100 µM (inactive)
GI50 (SW-620): > 100 µM (inactive)
GI50 (HOP-62): > 100 µM (inactive)
GI50 (HT-29): > 100 µM (inactive)
GI50 (TK-10): > 100 µM (inactive)
GI50 (HOP-92): > 100 µM (inactive)
GI50 (IGROV-1): > 100 µM (inactive)
GI50 (RXF 393): > 100 µM (inactive)
GI50 (NCI-H460): > 100 µM (inactive)
GI50 (SK-OV-3): > 100 µM (inactive)
GI50 (K562): > 100 µM (inactive)
GI50 (KM12): > 100 µM (inactive)
GI50 (NCI-H522): > 100 µM (inactive)
GI50 (SNB-19): > 100 µM (inactive)
GI50 (A549): > 100 µM (inactive)
GI50 (786-0): > 100 µM (inactive)
GI50 (HCT-15): > 100 µM
GI50 (DMS-114): > 100 µM (inactive)
GI50 (Malme-3M): > 100 µM (inactive)
GI50 (ACHN): > 100 µM (inactive)
GI50 (NCI-H23): > 100 µM (inactive)
GI50 (DLD-1): > 100 µM (inactive)
GI50 (SR): > 100 µM (inactive)
GI50 (OVCAR-5): > 100 µM (inactive)
GI50 (OVCAR-8): > 100 µM (inactive)
GI50 (OVCAR-4): > 100 µM (inactive)
GI50 (SN12C): > 100 µM (inactive)
GI50 (U-251): > 100 µM (inactive)
GI50 (A498): > 100 µM (inactive)
GI50 (OVCAR-3): > 100 µM (inactive)
GI50 (CCRF-CEM): > 100 µM (inactive)
GI50 (HL-60): > 100 µM (inactive)

Nn1c(S)nnc1COc1cccc(OCc2nnc(S)n2N)c1
GI50 (MDA-MB-435): > 100 µM (inactive)
GI50 (SF-539): 80 µM (inactive)
GI50 (SF-268): > 100 µM (inactive)
GI50 (SNB-75): > 100 µM (inactive)
GI50 (HCC 2998): > 100 µM (inactive)
GI50 (UO-31): > 100 µM (inactive)
GI50 (HCT-116): > 100 µM (inactive)
GI50 (RPMI-8226): 53.6 µM (inactive)
GI50 (M14): > 100 µM (inactive)
GI50 (SK-MEL-2): > 100 µM (inactive)
GI50 (SF-295): > 100 µM (inactive)
GI50 (MOLT-4): 3.13 µM (inactive)
GI50 (LOX IMVI): 32.4 µM (inactive)
GI50 (CAKI-1): > 100 µM (inactive)
GI50 (COLO 205): 98.4 µM (inactive)
GI50 (SK-MEL-28): > 100 µM (inactive)
GI50 (UACC-62): 83.2 µM (inactive)
GI50 (SW-620): 40 µM (inactive)
GI50 (Hs-578T): > 100 µM (inactive)
GI50 (HOP-62): > 100 µM (inactive)
GI50 (HT-29): 43.7 µM (inactive)
GI50 (TK-10): > 100 µM (inactive)
GI50 (HOP-92): > 100 µM (inactive)
GI50 (IGROV-1): > 100 µM (inactive)
GI50 (RXF 393): > 100 µM (inactive)
GI50 (NCI-H460): 29.7 µM (inactive)
GI50 (SK-OV-3): > 100 µM (inactive)
GI50 (UACC-257): > 100 µM (inactive)
GI50 (K562): 4.9 µM (inactive)
GI50 (NCI/ADR-RES): > 100 µM (inactive)
GI50 (KM12): > 100 µM (inactive)
GI50 (NCI-H522): 65.3 µM (inactive)
GI50 (PC-3): > 100 µM (inactive)
GI50 (NCI-H226): > 100 µM (inactive)
GI50 (SNB-19): > 100 µM (inactive)
GI50 (A549): > 100 µM (inactive)
GI50 (786-0): 34.3 µM (inactive)
GI50 (HCT-15): 58.7 µM
GI50 (MDA-MB-231): > 100 µM (inactive)
GI50 (Malme-3M): > 100 µM (inactive)
GI50 (BT-549): > 100 µM (inactive)
GI50 (ACHN): > 100 µM (inactive)
GI50 (NCI-H23): > 100 µM (inactive)
GI50 (T47D): > 100 µM (inactive)
GI50 (SR): 2.45 µM (inactive)
GI50 (OVCAR-5): > 100 µM (inactive)
GI50 (OVCAR-8): > 100 µM (inactive)
GI50 (OVCAR-4): > 100 µM (inactive)
GI50 (MCF7): 75 µM (inactive)
GI50 (SN12C): > 100 µM (inactive)
GI50 (U-251): > 100 µM (inactive)
GI50 (A498): > 100 µM (inactive)
GI50 (EKVX): > 100 µM (inactive)
GI50 (MDA-N): > 100 µM (inactive)
GI50 (OVCAR-3): > 100 µM (inactive)
GI50 (CCRF-CEM): 30.7 µM (inactive)
GI50 (DU-145): > 100 µM (inactive)
GI50 (HL-60): 86.3 µM (inactive)
